{"source": "patent US8906395B2", "about": "“Pharmaceutical composition in which solubility of partially soluble tricyclic derivative is improved” (Jeil Pharmaceutical Co., Ltd., priority 2010, dated 2014)", "key": {"[1]": {"test": "Solubility of tricyclic derivative compound in water (HPLC)", "format": "physicochemical", "details": "distilled water, room temperature, stirred 24 hours, 0.2 μm filtrate", "protocol": "The solubility of the tricyclic derivative compound of Formula 1 in water was measured in the following manner.\n1.42 mg of the tricyclic derivative compound was dissolved in acetonitrile to prepare […] of a solution which was then serially diluted to prepare 50 μl/ml, 20 μl/ml and 10 μl/ml of standard solutions. 3-ethoxythiocolchicine as an internal standard was added to each of the standard solutions which were then analyzed by HPLC to measure the area ratio of the tricyclic derivative compound.\nThen, 1 g of the tricyclic derivative compound was added to 10 ml of distilled water to make a suspension which was then stirred at room temperature for 24 hours to sufficiently dissolve the compound. Then, the suspension was filtered through a 0.2 μm membrane to remove insoluble materials, and the remaining filtrate was analyzed by HPLC using 3-ethoxythiocolchicine as an internal standard to measure the area ratio of the tricyclic derivative compound, which was then compared with the area ratio of the standard curve shown in FIG. 1, thereby determining the concentration of the tricyclic derivative compound dissolved in water."}, "[2]": {"test_system": "tumor", "details": "in vivo; cited from earlier work"}, "[3]": {"test": "Solubility of tricyclic derivative compound in solubilizing agents (HPLC)", "format": "physicochemical", "protocol": "The solubility of the tricyclic derivative compound in a solubilizing agent was measured in the following manner."}, "[4]": {"test_system": "HUVEC cells", "details": "cited from earlier work"}, "[5]": {"details": "compared to a colchicine or taxol injection; cited from earlier work"}, "[6]": {"test_system": "cancer cell lines", "details": "cited from earlier work"}}, "data": [{"smiles": "CCOc1cc2c(c(OC)c1OC)-c1ccc(SC)c(=O)cc1[C@@H](NC(=O)c1cccc(CO[N+](=O)[O-])c1F)CC2", "note": "[tricyclic derivative compound]", "values": [{"measurement": "solubility in water", "setting": "[1]", "result": 0.00, "unit": "μl/ml"}, {"measurement": "tumor size and weight", "setting": "[2]", "result": "significantly reduces the tumor size and weight"}, {"measurement": "Solubility", "setting": "[3]; PEG 400:water 0:100", "result": "Not detected"}, {"measurement": "solubility at 24 h", "setting": "[3]; PEG 400:water 10:90, aqueous with cosolvent or surfactant or cyclodextrin", "result": 0.21, "unit": "µg/mL"}, {"measurement": "solubility at 24 h", "setting": "[3]; PEG 400:water 20:80, aqueous with cosolvent or surfactant or cyclodextrin", "result": 2.94, "unit": "µg/mL"}, {"measurement": "solubility at 24 h", "setting": "[3]; PEG 400:water 30:70, aqueous with cosolvent or surfactant or cyclodextrin", "result": 1.24, "unit": "µg/mL"}, {"measurement": "solubility at 24 h", "setting": "[3]; PEG 400:water 40:60, aqueous with cosolvent or surfactant or cyclodextrin", "result": 53.9, "unit": "µg/mL"}, {"measurement": "solubility at 24 h", "setting": "[3]; PEG 400:water 50:50, aqueous with cosolvent or surfactant or cyclodextrin", "result": 189, "unit": "µg/mL"}, {"measurement": "solubility at 24 h", "setting": "[3]; PEG 400:water 100:0, organic solvent or mixture", "result": 52000, "unit": "µg/mL"}, {"measurement": "solubility at 24 h", "setting": "[3]; benzyl alcohol, organic solvent or mixture, solvent: Benzylalcohol", "result": "> 103000", "unit": "µg/mL"}, {"measurement": "solubility at 24 h", "setting": "[3]; organic solvent or mixture, solvent: Ethanol", "result": 35, "unit": "µg/mL"}, {"measurement": "solubility at 24 h", "setting": "[3]; organic solvent or mixture, solvent: Glycerin", "result": 4.8, "unit": "µg/mL"}, {"measurement": "solubility at 24 h", "setting": "[3]; organic solvent or mixture, solvent: N,N-dimethylacetamide", "result": "> 218000", "unit": "µg/mL"}, {"measurement": "solubility at 24 h", "setting": "[3]; organic solvent or mixture, solvent: Polyethylene glycol 400 (PEG 400)", "result": 52000, "unit": "µg/mL"}, {"measurement": "solubility at 24 h", "setting": "[3]; organic solvent or mixture, solvent: Propylene glycol", "result": 2300, "unit": "µg/mL"}, {"measurement": "Solubility", "setting": "[3]; solvent: 5% aqueous solution of hydrochloric acid", "result": "Not detected"}, {"measurement": "Solubility", "setting": "[3]; solvent: 5% aqueous solution of sodium hydrogen carbonate", "result": "Not detected"}, {"measurement": "Solubility", "setting": "[3]; solvent: 5% aqueous solution of sodium oxide", "result": "Not detected"}, {"measurement": "Solubility", "setting": "[3]; solvent: Water", "result": "Not detected"}, {"measurement": "angiogenesis inhibitory activity", "setting": "[4]", "result": "strong angiogenesis inhibitory activity"}, {"measurement": "toxicity in animal toxicity test", "setting": "[5]", "result": "significantly reduced toxicity"}, {"measurement": "cytotoxicity against cancer cell lines", "setting": "[6]", "result": "very strong cytotoxicity"}]}]}
